Reference: patent publication US9517233B2, “Local cochlear application of statins for stimulating neurite regrowth in the cochlea” (Northwestern University, priority 2012, dated 2016)
Entries after “also recorded” stand apart in the source; their conditions may differ.

How the values were obtained:
spiral ganglion neurons = experiment: In vitro phenotypic screening assay of neurite length in spiral ganglion cultures; format: cell-based, mouse; settings: for lowest effective dose for stimulating neurite growth (neurite length dose response) / effect on neurite length: spiral ganglion cultures; for lowest effective dose for stimulating neurite growth (neurite length dose response): cumulative percent histograms of neurite length vs DMSO control, highest dose tested 25 μM for Pravastatin; for effect on neurite length: compound in culture media; for effect on neurite length at 10 μM: media containing compound at 10 μM, DMSO negative control, 4 replicate cultures
Text: The in vitro phenotypic screen for spiral ganglion neurons is designed to identify both survival promoting and neurite promoting compounds. The screening procedure focuses on the survival, neurite initiation and neurite elongation steps of the experimental model (FIG. 5A-C). […] Newborn mouse pups served as a source for preparing primary cultures of the spiral ganglia from 16 cochleas. From these cochleas, 192 cultures in a 384 well plate that enables screening of 45 compounds and 3 controls for each dissection.
The screening approach preferably uses automated imaging and computer assisted data analysis. […] Populations of neurites are measured and graphed as cumulative percent histograms of neurite length. In these graphs, a shift to the right means that the population had longer neurites.
CD-1 mice (Charles River Laboratories, Wilmington Mass. [US]), age newborn, were used for cultures that test neurite length; postnatal day 1-2 mice were used for cultures that test survival. Mice were anesthetized by cooling at −80° C. for 4 minutes and euthanized by aseptic decapitation.
Cultures were prepared by a modification of the procedure previously reported and modified (Whitlon et al., Neuroscience 138, 653-662 (2006); Lie et al., Neuroscience 169, 855-862 (2010); Whitlon et al. Neuroscience 146, 833-840 (2007); Whitlon et al., Neuroscience 161, 227-235 (2009)). To increase the number of cultures produced from one dissecting session while maintaining consistency in the preparations, the number of animals was increased to 8 (16 cochleas, a practical limit) and the volume of the cultures was decreased to 50 μl. Cells derived from the equivalent of […] ganglia were plated in each well. These changes allowed the material from each dissection session to be cultured in 192 wells of a standard 384 well plate. Each dissection session could accommodate 3 controls and 45 compounds in quadruplicate. The cochlear capsule was opened and the tissue was treated with Dispase, 5 units/ml. After washing, the cochlea was removed from its capsule. The cochlear epithelium, spiral ligament and stria were dissected away. […] Both were then diluted in medium and added to the wells 22 hours after plating. Cultures were fixed 24 hours later with 4% paraformaldehyde in 0.1M sodium phosphate buffer, pH 7.2 for 45 minutes. Conditions were tested in quadruplicate. […] Negative controls were the vehicles DMSO (0.17%) and water (0.17%).
Fixed cultures were immunolabeled for the neural βIII tubulin using the mouse monoclonal antibody TuJ1 and Alexa Fluor 594 tagged secondary antibody as described for immunofluorescent labeling (Whitlon et al. Neuroscience 161, 227-235 (2009)). Nuclei were visualized with Nuclear Yellow. The labeled cultures were preserved with one drop of DAKO fluorescent mounting medium in each well.
The immunolabeled 384 well plates were loaded into an Image Xpress automatic imager for image acquisition.

[1] = tested on: PTS noise exposed guinea pigs; experiment: Guinea pig model of PTS, auditory brainstem response (ABR) thresholds after noise exposure; format: in vivo; settings: left ear infused with 50 μM Fluvastatin, 250 μL over 28 days by miniosmotic pump, from noise exposure on; hearing measured in contralateral right ear
Text: A testing method with a guinea pig model of PTS was developed for this purpose. Compounds were introduced into the left ear of the subject with a cannula attached to a miniosmotic pump. Because the cannula is physically within the cochlea, it had the possibility of interfering with sound transfer in the cochlea, and thereby interfering with auditory brain response (ABR) measurements. For this reason, the compound was delivered via cannula to the left ear, but tested for its effect in the contralateral ear, taking advantage of the connection between cochlear fluids and the cerebral spinal fluid. Animals were subjected to an sound injury causing PTS. Fluvastatin was delivered in vivo to the left ear at 50 times the concentration that was effective for stimulating neurite growth in vitro and ABRs were evaluated in the contralateral, right cochleas. […] The compound was first evaluated for the ability to provide a protective effect from hearing loss attributed to high level noise, wherein the compound was delivered at the same time as the noise exposure and for 4 weeks thereafter. […]
Drug efficiency was tested in guinea pigs, 200-500 g in body weight. […] Baseline cochlear function was determined with auditory brainstem responses. Sound levels to evoke a visual ABR response were determined for pure tones at selected frequencies between 2 and 32 kHz and for acoustic clicks. […]

SMILES	lowest effective dose for stimulating neurite growth (neurite length dose response) (spiral ganglion neurons) [µM]	effect on neurite length (spiral ganglion neurons)	also measured
CC(C)c1c(C(=O)Nc2ccccc2)c(-c2ccccc2)c(-c2ccc(F)cc2)n1CC[C@@H](O)C[C@@H](O)CC(=O)O [Atorvastatin, (3R,5R)-7-[2-(4-fluorophenyl)-3-phenyl-4-(phenylcarbamoyl)-5-(propan-2-yl)-1H-pyrrol-1-yl]-3,5-dihydroxyheptanoic acid]	10		
O=S(=O)(c1cccc2cnccc12)N1CCCNCC1 [Fasudil]		stimulated neurite length	
COCc1c(C(C)C)nc(C(C)C)c(/C=C/[C@@H](O)C[C@@H](O)CC(=O)O)c1-c1ccc(F)cc1 [Cerivastatin]	1		effect of geranylgeraniol on the statin's stimulation of neurite length (spiral ganglion neurons; media containing both statin (Cerivastatin 10 μM or Fluvastatin 5 μM) and geranylgeraniol (10 μM)): effectively blocked the stimulatory effect; effect on neurite length at 10 μM (spiral ganglion neurons): increased neurite length; neurite growth compared with positive control H1152 (spiral ganglion neurons; screen of NIH Clinical Collection, FIG. 11A): stimulated neurite growth as well as H1152
Cc1cncc2cccc(S(=O)(=O)N3CCCNC[C@@H]3C)c12 [H1152, 4-methyl-5-{[(2S)-2-methyl-1,4-diazepan-1-yl]sulfonyl}isoquinoline]		stimulate neurite length; also recorded: increased neurite lengths	
O=C(O)C[C@H](O)C[C@H](O)/C=C/c1c(C2CC2)nc2ccccc2c1-c1ccc(F)cc1 [Pitavastatin, (3R,5S,6E)-7-[2-cyclopropyl-4-(4-fluorophenyl)quinolin-3-yl]-3,5-dihydroxyhept-6-enoic acid]	2	increase neurite length; also recorded: effective up to the highest dose tested	measured lengths of neurites compared with positive control H1152 (spiral ganglion neurons; Pitavastatin at 2 μM or higher, H1152 16.5 μM): as long or longer
CC[C@H](C)C(=O)O[C@H]1C[C@@H](C)C=C2C=C[C@H](C)[C@H](CC[C@@H]3C[C@@H](O)CC(=O)O3)[C@H]21 [Lovastatin, (1S,3R,7S,8S,8aR)-8-{2-[(2R,4R)-4-hydroxy-6-oxooxan-2-yl]ethyl}-3,7-dimethyl-1,2,3,7,8,8a-hexahydronaphthalen-1-yl (2S)-2-methylbutanoate]	5		
O=c1[nH]ccc2c(S(=O)(=O)N3CCCNCC3)cccc12 [Hydroxyl Fasudil]		stimulated neurite length	
CC[C@H](C)C(=O)O[C@H]1C[C@H](O)C=C2C=C[C@H](C)[C@H](CC[C@@H](O)C[C@@H](O)CC(=O)O)[C@H]21 [Pravastatin]	> 25		
CCC(C)(C)C(=O)O[C@H]1C[C@@H](C)C=C2C=C[C@H](C)[C@H](CC[C@@H]3C[C@@H](O)CC(=O)O3)[C@H]21 [Simvastatin, (1S,3R,7S,8S,8aR)-8-{2-[(2R,4R)-4-hydroxy-6-oxooxan-2-yl]ethyl}-3,7-dimethyl-1,2,3,7,8,8a-hexahydronaphthalen-1-yl 2,2-dimethylbutanoate]	5		
CC(C)n1c(/C=C/[C@H](O)C[C@H](O)CC(=O)O)c(-c2ccc(F)cc2)c2ccccc21 (stereo in doubt) [Fluvastatin, (3S,5R,6E)-7-[3-(4-fluorophenyl)-1-(propan-2-yl)-1H-indol-2-yl]-3,5-dihydroxyhept-6-enoic acid]	1		protection from hearing loss / permanent threshold shift (ABR threshold change) [1]: effective protection by preventing hearing loss; also recorded: PTS injury could not be induced
CC(C)=CCC/C(C)=C/CC/C(C)=C/CC/C(C)=C/CO [geranylgeraniol]			effect on neurite length at 10 μM (spiral ganglion neurons): no effect upon growth of neurite length
